Experimental data from the NIST ThermoML archive (doi:10.1016/j.fluid.2011.03.030).
Numbers after ± are expanded uncertainties.

What was measured:
[1] = Liquid; for viscosity: Capillary tube (Ostwald / Ubbelohde) method; for mass density: Vibrating tube method; for vapor or sublimation pressure / Normal boiling temperature: Ebulliometric method (Recirculating still)
[2] = xn = mol fraction of the nth substance listed; details: 101 kPa, Liquid; for viscosity: Capillary tube (Ostwald / Ubbelohde) method; for mass density: Vibrating tube method

SMILES: C1C[C@@H]2[C@H]3CC[C@H](C3)[C@@H]2C1 [exo-tetrahydrodicyclopentadiene]
- viscosity ([1]; 298.15 K, 101.33 kPa): 2.739 ± 0.029 mPa·s
- mass density ([1]; 298.15 K, 101.33 kPa): 931.4 ± 0.5 kg/m3
- viscosity ([1]; 303.15 K, 101 kPa): 2.522 ± 0.034 mPa·s
- mass density ([1]; 303.15 K, 101 kPa): 927.41 ± 0.45 kg/m3
- viscosity ([1]; 308.15 K, 101 kPa): 2.298 ± 0.031 mPa·s
- mass density ([1]; 308.15 K, 101 kPa): 923.48 ± 0.44 kg/m3
- viscosity ([1]; 313.15 K, 101 kPa): 2.107 ± 0.029 mPa·s
- mass density ([1]; 313.15 K, 101 kPa): 919.58 ± 0.44 kg/m3
- vapor or sublimation pressure ([1]; 396 K): 16.64 ± 0.23 kPa
- vapor or sublimation pressure ([1]; 401.4 K): 20.62 ± 0.24 kPa
- vapor or sublimation pressure ([1]; 413.8 K): 30.3 ± 0.26 kPa
- vapor or sublimation pressure ([1]; 418.3 K): 34.79 ± 0.28 kPa
- vapor or sublimation pressure ([1]; 426.8 K): 44.86 ± 0.31 kPa
- vapor or sublimation pressure ([1]; 431.2 K): 50.7 ± 0.33 kPa
- vapor or sublimation pressure ([1]; 434.5 K): 55.76 ± 0.35 kPa
- vapor or sublimation pressure ([1]; 436.6 K): 59.2 ± 0.36 kPa
- vapor or sublimation pressure ([1]; 439 K): 63.22 ± 0.38 kPa
- vapor or sublimation pressure ([1]; 441.1 K): 66.63 ± 0.39 kPa
- vapor or sublimation pressure ([1]; 442.7 K): 69.49 ± 0.4 kPa
- vapor or sublimation pressure ([1]; 442.8 K): 69.77 ± 0.41 kPa
- vapor or sublimation pressure ([1]; 444.3 K): 72.58 ± 0.42 kPa
- vapor or sublimation pressure ([1]; 445.7 K): 75.11 ± 0.43 kPa
- vapor or sublimation pressure ([1]; 446.1 K): 75.89 ± 0.43 kPa
- vapor or sublimation pressure ([1]; 450 K): 83.92 ± 0.46 kPa
- vapor or sublimation pressure ([1]; 457.3 K): 101.1 ± 0.5 kPa
- Normal boiling temperature [1]: 184.94 ± 0.04 °C

SMILES: C1C[C@@H]2[C@H]3CC[C@H](C3)[C@@H]2C1 [exo-tetrahydrodicyclopentadiene] + CC1CCCCC1
- viscosity ([2]; 303.15 K, x2 = 0): 2.522 ± 0.034 mPa·s
- viscosity ([2]; 303.15 K, x2 = 0.1404): 2.047 ± 0.027 mPa·s
- viscosity ([2]; 303.15 K, x2 = 0.2593): 1.754 ± 0.023 mPa·s
- viscosity ([2]; 303.15 K, x2 = 0.3693): 1.502 ± 0.019 mPa·s
- viscosity ([2]; 303.15 K, x2 = 0.4981): 1.258 ± 0.016 mPa·s
- viscosity ([2]; 303.15 K, x2 = 0.5813): 1.113 ± 0.014 mPa·s
- viscosity ([2]; 303.15 K, x2 = 0.6745): 0.975 ± 0.012 mPa·s
- viscosity ([2]; 303.15 K, x2 = 0.763): 0.866 ± 0.011 mPa·s
- viscosity ([2]; 303.15 K, x2 = 0.8469): 0.772 ± 0.01 mPa·s
- viscosity ([2]; 303.15 K, x2 = 0.9245): 0.693 ± 0.009 mPa·s
- mass density ([2]; 303.15 K, x2 = 0): 927.41 ± 0.45 kg/m3
- mass density ([2]; 303.15 K, x2 = 0.1404): 907.42 ± 0.39 kg/m3
- mass density ([2]; 303.15 K, x2 = 0.2593): 889.67 ± 0.35 kg/m3
- mass density ([2]; 303.15 K, x2 = 0.3693): 872.78 ± 0.32 kg/m3
- mass density ([2]; 303.15 K, x2 = 0.4981): 851.85 ± 0.28 kg/m3
- mass density ([2]; 303.15 K, x2 = 0.5813): 837.98 ± 0.26 kg/m3
- mass density ([2]; 303.15 K, x2 = 0.6745): 821.76 ± 0.25 kg/m3
- mass density ([2]; 303.15 K, x2 = 0.763): 805.84 ± 0.23 kg/m3
- mass density ([2]; 303.15 K, x2 = 0.8469): 790.22 ± 0.22 kg/m3
- mass density ([2]; 303.15 K, x2 = 0.9245): 775.47 ± 0.22 kg/m3
- viscosity ([2]; 308.15 K, x2 = 0): 2.298 ± 0.031 mPa·s
- viscosity ([2]; 308.15 K, x2 = 0.1404): 1.891 ± 0.025 mPa·s
- viscosity ([2]; 308.15 K, x2 = 0.2593): 1.616 ± 0.021 mPa·s
- viscosity ([2]; 308.15 K, x2 = 0.3693): 1.386 ± 0.018 mPa·s
- viscosity ([2]; 308.15 K, x2 = 0.4981): 1.163 ± 0.015 mPa·s
- viscosity ([2]; 308.15 K, x2 = 0.5813): 1.02 ± 0.013 mPa·s
- viscosity ([2]; 308.15 K, x2 = 0.6745): 0.897 ± 0.011 mPa·s
- viscosity ([2]; 308.15 K, x2 = 0.763): 0.798 ± 0.01 mPa·s
- viscosity ([2]; 308.15 K, x2 = 0.8469): 0.711 ± 0.009 mPa·s
- viscosity ([2]; 308.15 K, x2 = 0.9245): 0.644 ± 0.008 mPa·s
- mass density ([2]; 308.15 K, x2 = 0): 923.48 ± 0.44 kg/m3
- mass density ([2]; 308.15 K, x2 = 0.1404): 903.45 ± 0.39 kg/m3
- mass density ([2]; 308.15 K, x2 = 0.2593): 885.65 ± 0.35 kg/m3
- mass density ([2]; 308.15 K, x2 = 0.3693): 868.72 ± 0.32 kg/m3
- mass density ([2]; 308.15 K, x2 = 0.4981): 847.73 ± 0.28 kg/m3
- mass density ([2]; 308.15 K, x2 = 0.5813): 833.82 ± 0.26 kg/m3
- mass density ([2]; 308.15 K, x2 = 0.6745): 817.58 ± 0.25 kg/m3
- mass density ([2]; 308.15 K, x2 = 0.763): 801.58 ± 0.23 kg/m3
- mass density ([2]; 308.15 K, x2 = 0.8469): 785.95 ± 0.22 kg/m3
- mass density ([2]; 308.15 K, x2 = 0.9245): 771.16 ± 0.22 kg/m3
- viscosity ([2]; 313.15 K, x2 = 0): 2.107 ± 0.029 mPa·s
- viscosity ([2]; 313.15 K, x2 = 0.1404): 1.736 ± 0.023 mPa·s
- viscosity ([2]; 313.15 K, x2 = 0.2593): 1.475 ± 0.019 mPa·s
- viscosity ([2]; 313.15 K, x2 = 0.3693): 1.275 ± 0.017 mPa·s
- viscosity ([2]; 313.15 K, x2 = 0.4981): 1.078 ± 0.014 mPa·s
- viscosity ([2]; 313.15 K, x2 = 0.5813): 0.963 ± 0.012 mPa·s
- viscosity ([2]; 313.15 K, x2 = 0.6745): 0.862 ± 0.011 mPa·s
- viscosity ([2]; 313.15 K, x2 = 0.763): 0.754 ± 0.009 mPa·s
- viscosity ([2]; 313.15 K, x2 = 0.8469): 0.675 ± 0.008 mPa·s
- viscosity ([2]; 313.15 K, x2 = 0.9245): 0.612 ± 0.008 mPa·s
- mass density ([2]; 313.15 K, x2 = 0): 919.58 ± 0.44 kg/m3
- mass density ([2]; 313.15 K, x2 = 0.1404): 899.48 ± 0.39 kg/m3
- mass density ([2]; 313.15 K, x2 = 0.2593): 881.63 ± 0.35 kg/m3
- mass density ([2]; 313.15 K, x2 = 0.3693): 864.67 ± 0.31 kg/m3
- mass density ([2]; 313.15 K, x2 = 0.4981): 843.61 ± 0.28 kg/m3
- mass density ([2]; 313.15 K, x2 = 0.5813): 829.66 ± 0.26 kg/m3
- mass density ([2]; 313.15 K, x2 = 0.6745): 813.38 ± 0.25 kg/m3
- mass density ([2]; 313.15 K, x2 = 0.763): 797.33 ± 0.23 kg/m3
- mass density ([2]; 313.15 K, x2 = 0.8469): 781.66 ± 0.22 kg/m3
- mass density ([2]; 313.15 K, x2 = 0.9245): 766.83 ± 0.22 kg/m3

SMILES: CC1CCCCC1 [methylcyclohexane]
- viscosity ([1]; 298.15 K, 101.33 kPa): 0.678 ± 0.007 mPa·s
- mass density ([1]; 298.15 K, 101.33 kPa): 765 ± 0.21 kg/m3
- viscosity ([1]; 303.15 K, 101 kPa): 0.627 ± 0.008 mPa·s
- mass density ([1]; 303.15 K, 101 kPa): 760.65 ± 0.21 kg/m3
- viscosity ([1]; 308.15 K, 101 kPa): 0.581 ± 0.007 mPa·s
- mass density ([1]; 308.15 K, 101 kPa): 756.29 ± 0.21 kg/m3
- viscosity ([1]; 313.15 K, 101 kPa): 0.554 ± 0.007 mPa·s
- mass density ([1]; 313.15 K, 101 kPa): 751.93 ± 0.21 kg/m3
- vapor or sublimation pressure ([1]; 321.9 K): 17.91 ± 0.23 kPa
- vapor or sublimation pressure ([1]; 331.5 K): 25.77 ± 0.24 kPa
- vapor or sublimation pressure ([1]; 336.8 K): 31.22 ± 0.25 kPa
- vapor or sublimation pressure ([1]; 342.3 K): 37.99 ± 0.27 kPa
- vapor or sublimation pressure ([1]; 346.9 K): 44.45 ± 0.29 kPa
- vapor or sublimation pressure ([1]; 350.7 K): 50.35 ± 0.31 kPa
- vapor or sublimation pressure ([1]; 355.2 K): 58.09 ± 0.33 kPa
- vapor or sublimation pressure ([1]; 359.1 K): 65.61 ± 0.35 kPa
- vapor or sublimation pressure ([1]; 362.3 K): 72.29 ± 0.37 kPa
- vapor or sublimation pressure ([1]; 364.8 K): 79.09 ± 0.4 kPa
- vapor or sublimation pressure ([1]; 366.4 K): 85.13 ± 0.42 kPa
- vapor or sublimation pressure ([1]; 369.8 K): 92.76 ± 0.44 kPa
- vapor or sublimation pressure ([1]; 373.9 K): 100.7 ± 0.5 kPa
- Normal boiling temperature [1]: 98.98 ± 0.03 °C

SMILES: CC1CCCCC1 [methylcyclohexane] + C1C[C@@H]2[C@H]3CC[C@H](C3)[C@@H]2C1
- viscosity ([2]; 303.15 K, x1 = 1): 0.627 ± 0.008 mPa·s
- mass density ([2]; 303.15 K, x1 = 1): 760.65 ± 0.21 kg/m3
- viscosity ([2]; 308.15 K, x1 = 1): 0.581 ± 0.007 mPa·s
- mass density ([2]; 308.15 K, x1 = 1): 756.29 ± 0.21 kg/m3
- viscosity ([2]; 313.15 K, x1 = 1): 0.554 ± 0.007 mPa·s
- mass density ([2]; 313.15 K, x1 = 1): 751.93 ± 0.21 kg/m3
